For one experiment, the system named is Meth A sarcoma. Briefly: Antitumor activity on mouse with carcinoma (Meth A sarcoma, i.p., 40 days). The format is in vivo, BALB/c male mice. As to conditions: for Average day surviving: 40 days, control 28.1 ± 0.2; for Prolongation percentage of life (T/C %): control 100; for Number surviving after 40 days: group of 10, control 0. As to the method:
About 1×10^6 cells/mouse of Meth A sarcoma was intraperitoneally injected into 8-week-old BALB/c male mice. From the next day after the administration, mice in a group of 10 were intraperitoneally injected twice a week with 0.2 ml of a physiological saline containing 0.0005, 0.005, 0.05 or 0.5 μg of any one of the compounds 1-5, and observed for 40 days. As a control, 0.2 ml/mouse/shot of physiological saline free of the compounds 1-5 was intraperitoneally injected to other groups of mice similarly as above.
Based on the data of the average day surviving (T) in the Groups of mice with the compounds 1-5 and the average day surviving (C) in the control group of mice, the prolongation percentage of life (T/C %) was calculated by the formula 1. [formula]

In experiment [1] the test system is human malignant tumors. As to conditions: Foods & Food Ingredients Journal of Japan, Vol.160 (1994); cited from earlier work.
Experiment [2] deals with Hep G2 cell (cancer of liver). As to the kind of experiment: Inhibition of tumor growth in nude mice, Hep G2. The format is in vivo, human. The conditions noted are these: 0.05 μg/mouse s.c. twice a week.
For experiment [3], the system named is WiDr cell (rectum cancer). As to the kind of experiment: Inhibition of tumor growth in nude mice, WiDr. Type of experiment: in vivo, human. As to conditions: 0.05 μg/mouse s.c. twice a week.
Experiment [4] concerns Hep-2 cell (thyroid gland cancer). Briefly: Inhibition of tumor growth in nude mice, Hep-2. Type of experiment: in vivo, human. The conditions noted are these: 0.05 μg/mouse s.c. twice a week.
In experiment [5] the test system is G-361 cell (malignant melanoma). As to the kind of experiment: Inhibition of tumor growth in nude mice, G-361. The format is in vivo, human. The conditions noted are these: 0.05 μg/mouse s.c. twice a week.
Experiment [6] concerns HGC-27 cell (gastric cancer). As to the kind of experiment: Inhibition of tumor growth in nude mice, HGC-27. As to conditions: 0.05 μg/mouse s.c. twice a week. The format is in vivo, human.
The test system of the next experiment is HL-60 cell (leukemia). Briefly: Inhibition of tumor growth in nude mice, HL-60. Type of experiment: in vivo, human. As to conditions: 0.05 μg/mouse s.c. twice a week.
Experiment [7] concerns KB cell (rhinopharynx cancer). Briefly: Inhibition of tumor growth in nude mice, KB. The format is in vivo, human. The conditions noted are these: 0.05 μg/mouse s.c. twice a week.
The subject of experiment [8] is RPMI 4788 cell (colon cancer). As to the kind of experiment: Inhibition of tumor growth in nude mice, RPMI 4788. The format is in vivo, human. The conditions noted are these: 0.05 μg/mouse s.c. twice a week.
Another experiment has as its system U-937 cell (lymphoma). Briefly: Inhibition of tumor growth in nude mice, U-937. Type of experiment: in vivo, human. As to conditions: 0.05 μg/mouse s.c. twice a week.
In a further experiment the test system is HLC-1 cell (lung cancer). Briefly: Inhibition of tumor growth in nude mice, HLC-1. Details: Average tumor weight, on a wet cell basis: unit not given here. As to conditions: 0.05 μg/mouse s.c. twice a week. Type of experiment: in vivo, human.
Experiment [9] deals with human malignant tumors. Briefly: Antitumor activity by the inhibition of tumor growth, nude mice, summary over human tumors. Type of experiment: in vivo. As to conditions: 0.05 μg s.c. twice a week. As to the method:
Based on the data of Experiment 2, a minimum dose of the compounds 1-5 to a nude mouse was estimated to be about 0.05 μg/mouse/shot, and the antitumor activity of the compounds 1-5 was tested by administering them at the above dose to nude mice transplanted with human malignant tumors.
Thereafter mice, observed the tumor cells' insertion, were grouped in a group of 7 mice, then administered twice a week with 0.2 ml of a physiological saline containing 0.05 μg of the compound 2 to the dorsal subcutaneous tissues, and observed for 25 days. As a control, mice in other group were administered in the same administration schedule with 0.2 ml/shot of physiological saline free of the compound 2.
On the 27th day after the transplantation, tumor masses formed in the nude mice were extracted and weighed, on a wet cell basis, according to the method as disclosed by Y. Shimosato and N. Tamaoki in "Jingan-to-Nude-mouse (Human Cancer and Nude Mice)", pp. 321-323 (1982), published by Ishiyaku Publishers, Inc., Tokyo, Japan, and the percentage surviving (%) on the 35th day after the transplantation was calculated.

Experiment [10] concerns HeLa cell (uterine cancer). Briefly: Inhibition of tumor growth in nude mice, HeLa. Type of experiment: in vivo, human. As to conditions: 0.05 μg/mouse s.c. twice a week.
[11] abbreviates: 0.0005 μg/0.2 ml/mouse i.p. twice a week.
Setting [12] is: 0.005 μg/0.2 ml/mouse i.p. twice a week.
Setting [13] is: 0.05 μg/0.2 ml/mouse i.p. twice a week.
Setting [14] is: 0.05 μg/0.2 ml/mouse i.p. twice a week, all marked * (significant, 5% level or lower vs control).
The mark [15] stands for this setting: 0.5 μg/0.2 ml/mouse i.p. twice a week.
Where [16] appears, read: 0.5 μg/0.2 ml/mouse i.p. twice a week, all marked * (significant, 5% level or lower vs control).

Structures can show the parent of a compound that is named as a salt. Bounds are passed on as bounds.

Turning to `CC(C)=CCc1cc(/C=C/C(=O)O)cc(CC=C(C)C)c1O` [compound 3, calcium salt of 3-[4-hydroxy-3,5-bis(3-methyl-2-butenyl)phenyl]-2-propenoic acid], the Average day surviving was found to be 31.1 ± 0.6 days in the experiment on Meth A sarcoma (setting [11]), 35.9 ± 0.3 days in the experiment with Meth A sarcoma (setting [12]), 38.9 ± 0.2 days with Meth A sarcoma (setting [13]) and 39.0 ± 0.2 days with Meth A sarcoma (setting [15]). For the same compound, the “Prolongation percentage of life (T/C %)” value with Meth A sarcoma (setting [11]) was 110.7%; in the experiment with Meth A sarcoma (setting [12]), 127.8%; in the experiment on Meth A sarcoma (setting [14]), 138.4%; with Meth A sarcoma (setting [16]), 138.8%. In addition, the “Number surviving after 40 days” value was determined as 2 in the experiment with Meth A sarcoma (setting [11]), 6 in the experiment on Meth A sarcoma (setting [12]), 8 in the experiment on Meth A sarcoma (setting [13]) and 9 in the experiment on Meth A sarcoma (setting [15]).

`CC(C)=CCc1cc(/C=C/C(=O)O)cc(CC=C(C)C)c1O` [compound 1, 3-[4-hydroxy-3,5-bis(3-methyl-2-butenyl)phenyl]-2-propenoic acid]: the Average day surviving in the experiment with Meth A sarcoma (setting [11]) came to 33.5 ± 0.6 days; in the experiment on Meth A sarcoma (setting [12]) it was 35.0 ± 0.9 days; with Meth A sarcoma (setting [13]), 37.3 ± 0.4 days; in the experiment on Meth A sarcoma (setting [15]), 39.8 ± 0.1 days. Besides, the “Prolongation percentage of life (T/C %)” value was determined as 119.2% in the experiment on Meth A sarcoma (setting [11]), 124.6% in the experiment with Meth A sarcoma (setting [12]), 132.7% in the experiment with Meth A sarcoma (setting [14]) and 141.6% in the experiment on Meth A sarcoma (setting [16]). Moreover, the “Number surviving after 40 days” value in the experiment on Meth A sarcoma (setting [11]) is 3; with Meth A sarcoma (setting [12]), 5; in the experiment with Meth A sarcoma (setting [13]) it was 7; with Meth A sarcoma (setting [15]), 9.

`O=c1c(O)c(-c2ccc(O)c(O)c2)oc2cc(O)cc(O)c12` [quercetin]: the “antitumor activity on human malignant tumors” value in the experiment on human malignant tumors [1] is recorded as “exerted an antitumor activity”.

As to `CC(C)=CCc1cc(/C=C/C(=O)O)cc(CC=C(C)C)c1O` [compound 2, sodium salt of 3-[4-hydroxy-3,5-bis(3-methyl-2-butenyl)phenyl]-2-propenoic acid], the “Average tumor weight, on a wet cell basis” value is on record as 0.18 ± 0.02 in experiment [2] (27th day after transplantation, control 2.06 ± 0.85, in g (unit assumed)); 0.36 ± 0.02 in experiment [3] (27th day after transplantation, control 1.83 ± 0.85, in g (unit assumed)); 0.81 ± 0.65 in experiment [4] (27th day after transplantation, control 2.16 ± 1.31, in g (unit assumed)); 0.36 ± 0.02 in [5] (27th day after transplantation, control 1.96 ± 0.98, in g (unit assumed)); 0.35 ± 0.09 in experiment [6] (27th day after transplantation, control 1.86 ± 0.64, in g (unit assumed)); 0.18 ± 0.03 in the experiment on HL-60 cell (leukemia) (27th day after transplantation, control 1.43 ± 0.08, in g (unit assumed)). The “Average tumor weight, on a wet cell basis” value in [7] (27th day after transplantation, control 2.12 ± 0.96, in g (unit assumed)) was 0.54 ± 0.03; in experiment [8] (27th day after transplantation, control 2.95 ± 1.36, in g (unit assumed)), 0.21 ± 0.03; with U-937 cell (lymphoma) (27th day after transplantation, control 0.99 ± 0.81, in g (unit assumed)), 0.25 ± 0.02; in the experiment on HLC-1 cell (lung cancer) (27th day after transplantation, control 1.25 ± 0.81) it was 0.124 ± 0.06; in experiment [10] (27th day after transplantation, control 1.36 ± 0.61, in g (unit assumed)), 0.54 ± 0.06. For the same compound, the “Percentage surviving at judgement (%)” value in experiment [2] (35th day, control 42.8) was determined as 100%; in experiment [3] (35th day, control 85.7) it was 100%; in experiment [4] (35th day, control 42.8), 100%; in [5] (35th day, control 57.1), 100%; in experiment [6] (35th day, control 85.7), 100%; with HL-60 cell (leukemia) (35th day, control 100), 100%. The “Percentage surviving at judgement (%)” value in experiment [7] (35th day, control 42.8) is on record as 100%; in [8] (35th day, control 71.4) it was 100%; in the experiment on U-937 cell (lymphoma) (35th day, control 85.7), 100%; in the experiment with HLC-1 cell (lung cancer) (35th day, control 71.4), 100%; in experiment [10] (35th day, control 100) it was 100%. Besides, the Average day surviving with Meth A sarcoma (setting [11]) was 32.3 ± 0.8 days; in the experiment on Meth A sarcoma (setting [12]), 36.5 ± 0.5 days; with Meth A sarcoma (setting [13]), 38.1 ± 0.1 days; with Meth A sarcoma (setting [15]) it was more than 40.0 days. The “Prolongation percentage of life (T/C %)” value in the experiment with Meth A sarcoma (setting [11]) was found to be 114.9%; with Meth A sarcoma (setting [12]), 129.9%; in the experiment with Meth A sarcoma (setting [14]), 135.6%; with Meth A sarcoma (setting [16]), 142.3%. Besides, the “Number surviving after 40 days” value in the experiment on Meth A sarcoma (setting [11]) was 2; in the experiment with Meth A sarcoma (setting [12]) it was 6; with Meth A sarcoma (setting [13]), 8; with Meth A sarcoma (setting [15]), 10. Further, the “antitumor effect on human malignant tumors” value in the experiment with human malignant tumors [9] is listed as “strong antitumor effect”. In addition, in the experiment with human malignant tumors [9], the “percentage surviving on the 35th day after the transplantation” value is reported as “attained a desired percentage surviving”.

As to `CC(C)=CCc1cc(/C=C/C(=O)O)cc(CC=C(C)C)c1O` [compound 5, potassium salt of 3-[4-hydroxy-3,5-bis(3-methyl-2-butenyl)phenyl]-2-propenoic acid], the Average day surviving in the experiment on Meth A sarcoma (setting [11]) came out at 32.6 ± 0.6 days; in the experiment with Meth A sarcoma (setting [12]), 36.1 ± 0.5 days; in the experiment with Meth A sarcoma (setting [13]) it was 38.2 ± 0.4 days; in the experiment on Meth A sarcoma (setting [15]) it was 39.2 ± 0.3 days. Moreover, the “Prolongation percentage of life (T/C %)” value in the experiment on Meth A sarcoma (setting [11]) was found to be 116.0%; in the experiment with Meth A sarcoma (setting [12]), 128.5%; with Meth A sarcoma (setting [14]), 135.9%; in the experiment with Meth A sarcoma (setting [16]), 139.5%. The “Number surviving after 40 days” value with Meth A sarcoma (setting [11]) is reported as 2; in the experiment with Meth A sarcoma (setting [12]), 6; with Meth A sarcoma (setting [13]), 8; in the experiment on Meth A sarcoma (setting [15]) it was 9.

Consider `CC(C)=CCc1cc(/C=C/C(=O)O)cc(CC=C(C)C)c1O` [compound 4, magnesium salt of 3-[4-hydroxy-3,5-bis(3-methyl-2-butenyl)phenyl]-2-propenoic acid], for which the Average day surviving with Meth A sarcoma (setting [11]) is 34.9 ± 0.3 days; in the experiment on Meth A sarcoma (setting [12]) it was 35.7 ± 0.4 days; in the experiment on Meth A sarcoma (setting [13]), 37.5 ± 0.2 days; with Meth A sarcoma (setting [15]), more than 40.0 days. In addition, the “Prolongation percentage of life (T/C %)” value was determined as 124.2% with Meth A sarcoma (setting [11]), 127.0% in the experiment on Meth A sarcoma (setting [12]), 133.5% in the experiment with Meth A sarcoma (setting [14]) and 142.3% with Meth A sarcoma (setting [16]). Also, the “Number surviving after 40 days” value with Meth A sarcoma (setting [11]) is reported as 3; with Meth A sarcoma (setting [12]), 5; in the experiment on Meth A sarcoma (setting [13]), 7; in the experiment on Meth A sarcoma (setting [15]), 10.

Regarding `O=C(/C=C/c1ccc(O)c(O)c1)OCCc1ccccc1` [caffeic acid phenethyl ester], the “antitumor activity on human malignant tumors” value in the experiment on human malignant tumors [1] is “exerted an antitumor activity”.

These data come from patent US5710179A, “Antitumor agent” (priority 1995, dated 1998).
